ChEMBL document CHEMBL4619714, “Amino acid prodrugs of NVR3-778: Design, synthesis and anti-HBV activity” (Bioorg Med Chem Lett, 2020)
In brackets after ≈: the same amount, converted by molar mass.

What was measured:
Hepatitis B virus [1] = test: Antiviral activity against Hepatitis B virus infected in human HepG2.2.15 cells by solid phase radioimmunoassay; format: functional, organism-based; details: HepG2 2.2.15
[2] = Cytotoxicity against human HepG2.2.15 cells; format: cell-based, HepG2 2.2.15
[3] = Selectivity index, ratio of CC50 for human HepG2.2.15 cells to IC50 for Hepatitis B virus; format: toxicity; details: read-out: Ratio CC50/IC50
Hepatitis B virus [4] = test: Antiviral activity against Hepatitis B virus infected in C57BL/6 mouse assessed as reduction in viral DNA at 0.1 mg/kg, po measured upto 6 days by qRT-PCR analysis; format: functional
[5] = Solubility of compound at pH 2 by HPLC-UV analysis; format: physicochemical; details: buffer
[6] = Half life in ICR mouse at 50 mg/kg, po; format: ADME, organism-based; details: in vivo
[7] = Tmax in ICR mouse at 50 mg/kg, po; format: ADME, organism-based; details: in vivo
[8] = Cmax in ICR mouse at 50 mg/kg, po; format: ADME, organism-based; design: dose 50 mg/kg, route oral; details: in vivo
[9] = AUC (0 to t) in ICR mouse at 50 mg/kg, po; format: ADME, organism-based; details: in vivo
[10] = MRT in ICR mouse at 50 mg/kg, po; format: ADME, organism-based; details: in vivo
Hepatitis B virus [11] = test: Antiviral activity against Hepatitis B virus infected in C57BL/6 mouse assessed as reduction in viral DNA at 0.93 mmol/kg, po administered bid and measured on day 2 by qRT-PCR analysis; format: functional
Hepatitis B virus [12] = test: Antiviral activity against Hepatitis B virus infected in C57BL/6 mouse assessed as reduction in viral DNA at 0.93 mmol/kg, po administered bid and measured on day 4 by qRT-PCR analysis; format: functional
[13] = Toxicity in C57BL/6 mouse infected with Hepatitis B virus assessed as reduction in body weight at 0.93 mmol/kg, po administered bid and observed for 6 days; format: organism-based; details: in vivo, 144 h
[14] = Solubility of compound assessed as 4-fluoro-3-[(4-hydroxy-1-piperidyl)sulfonyl]-N-(3,4,5-trifluorophenyl)benzamide level at pH 2; format: physicochemical; details: buffer
[15] = Half life in ICR mouse assessed as 4-fluoro-3-[(4-hydroxy-1-piperidyl)sulfonyl]-N-(3,4,5-trifluorophenyl)benzamide level at 50 mg/kg, po; format: ADME, organism-based; details: in vivo
[16] = Tmax in ICR mouse assessed as 4-fluoro-3-[(4-hydroxy-1-piperidyl)sulfonyl]-N-(3,4,5-trifluorophenyl)benzamide level at 50 mg/kg, po; format: ADME, organism-based; details: in vivo
[17] = Cmax in ICR mouse assessed as 4-fluoro-3-[(4-hydroxy-1-piperidyl)sulfonyl]-N-(3,4,5-trifluorophenyl)benzamide level at 50 mg/kg, po; format: ADME, organism-based; design: dose 50 mg/kg, route oral; details: in vivo
[18] = AUC (0 to t) in ICR mouse assessed as 4-fluoro-3-[(4-hydroxy-1-piperidyl)sulfonyl]-N-(3,4,5-trifluorophenyl)benzamide level at 50 mg/kg, po; format: ADME, organism-based; details: in vivo
[19] = MRT in ICR mouse assessed as 4-fluoro-3-[(4-hydroxy-1-piperidyl)sulfonyl]-N-(3,4,5-trifluorophenyl)benzamide level at 50 mg/kg, po; format: ADME, organism-based; details: in vivo
Hepatitis B virus [20] = test: Antiviral activity against Hepatitis B virus infected in orally dosed C57BL/6 mouse assessed as reduction in viral DNA administered bid for daily and measured upto 6 days by qRT-PCR analysis; format: functional, organism-based
[21] = Toxicity in C57BL/6 mouse infected with Hepatitis B virus assessed as reduction in body weight at 0.23 and 0.93 mmol/kg, po administered bid and observed for 6 days; format: organism-based; details: in vivo, 144 h

**Q.** Which results are given for `C[C@H](N)C(=O)OC1CCN(S(=O)(=O)c2cc(C(=O)Nc3cc(F)c(F)c(F)c3)ccc2F)CC1`?
**A.** IC50 (Hepatitis B virus [1]): 280 nM; CC50 [2]: 4810 nM; selectivity ratio [3]: 17.2

**Q.** Which results are given for `N[C@@H](Cc1ccccc1)C(=O)OC1CCN(S(=O)(=O)c2cc(C(=O)Nc3cc(F)c(F)c(F)c3)ccc2F)CC1`?
**A.** IC50 (Hepatitis B virus [1]): 350 nM; CC50 [2]: > 10000 nM; selectivity ratio [3]: > 28.6

**Q.** For `CC(C)(C)[C@H](N)C(=O)OC1CCN(S(=O)(=O)c2cc(C(=O)Nc3cc(F)c(F)c(F)c3)ccc2F)CC1`, which IC50 (Hepatitis B virus [1]) is on record?
**A.** 560 nM

**Q.** What about the CC50 [2] of the same compound?
**A.** > 10000 nM

**Q.** What about the selectivity ratio [3] of the same compound?
**A.** > 17.9

**Q.** With `C=C1[C@H](CO)[C@@H](O)C[C@@H]1n1cnc2c(=O)[nH]c(N)nc21.O` [ENTECAVIR] as the compound, how does the Activity (Hepatitis B virus [4]) read?
**A.** 1.67 log10IU/ml

**Q.** What does the source list for `CC(C)C[C@H](N)C(=O)OC1CCN(S(=O)(=O)c2cc(C(=O)Nc3cc(F)c(F)c(F)c3)ccc2F)CC1`?
**A.** IC50 (Hepatitis B virus [1]): 280 nM; CC50 [2]: 5770 nM; selectivity ratio [3]: 20.6

**Q.** With `CCC(C)[C@H](N)C(=O)OC1CCN(S(=O)(=O)c2cc(C(=O)Nc3cc(F)c(F)c(F)c3)ccc2F)CC1` (some centres undefined) as the compound, how does the IC50 (Hepatitis B virus [1]) read?
**A.** 380 nM

**Q.** And the CC50 [2]?
**A.** > 10000 nM

**Q.** What about the selectivity ratio [3] of the same compound?
**A.** > 26.3

**Q.** Which IC50 (Hepatitis B virus [1]) does the source give for `O=C(Nc1cc(F)c(F)c(F)c1)c1ccc(F)c(S(=O)(=O)N2CCC(O)CC2)c1` here?
**A.** 260 nM

**Q.** What about the CC50 [2] of the same compound?
**A.** 4810 nM

**Q.** What about the selectivity ratio [3] of the same compound?
**A.** 18.5

**Q.** What about the solubility [5] of the same compound?
**A.** 3 µg/mL (≈ 6.94 µM)

**Q.** And the half-life [6]?
**A.** 8.14 h

**Q.** What about the Tmax [7] of the same compound?
**A.** 1.08 h

**Q.** And the Cmax [8]?
**A.** 66100 ng/mL

**Q.** And the AUC(0-t) [9]?
**A.** 456 µg·h/mL

**Q.** And the MRT [10]?
**A.** 10.7 h

**Q.** And the Activity (Hepatitis B virus [11])?
**A.** 0.53 log10IU/ml

**Q.** What about the Activity (Hepatitis B virus [12]) of the same compound?
**A.** 0.6 log10IU/ml

**Q.** And the Activity [13]?
**A.** Non-Toxic

**Q.** With `NCC(=O)OC1CCN(S(=O)(=O)c2cc(C(=O)Nc3cc(F)c(F)c(F)c3)ccc2F)CC1` as the compound, how does the IC50 (Hepatitis B virus [1]) read?
**A.** 1400 nM

**Q.** What about the CC50 [2] of the same compound?
**A.** > 10000 nM

**Q.** What about the selectivity ratio [3] of the same compound?
**A.** > 7.1

**Q.** What does the source list for `CC(C)[C@H](N)C(=O)OC1CCN(S(=O)(=O)c2cc(C(=O)Nc3cc(F)c(F)c(F)c3)ccc2F)CC1`?
**A.** IC50 (Hepatitis B virus [1]): 340 nM; CC50 [2]: > 10000 nM; selectivity ratio [3]: > 29.4; half-life [6]: 1.23 h; Tmax [7]: 0.25 h; Cmax [8]: 11500 ng/mL; AUC(0-t) [9]: 6.65 µg·h/mL; MRT [10]: 0.97 h; solubility [14]: 700 µg/mL (≈ 1320 µM); t1/2 [15]: 3.53 h; Tmax [16]: 0.5 h; Cmax [17]: 45170 ng/mL; AUCt [18]: 258.9 µg·h/mL; MRT [19]: 4.66 h; Activity (Hepatitis B virus [20]): Dose-dependent effect; Activity (Hepatitis B virus [11]): 0.75 log10IU/ml; Activity (Hepatitis B virus [12]): 0.67 log10IU/ml; Activity [21]: Non-Toxic
